# Measured values as given in PubChem BioAssay AID504356 (Broad Institute, 2011).
# Active and inactive are the calls of the source.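 Rule for the calls: active = curve reaching 10% of positive control caspase signal at or below the top valid tested dose; inactive = opposite-direction activity, or no crossing across tested range.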
# How the values were obtained:
# [1] = caspase-Glo signal rise in Trichostatin-treated MEWO cells – cell-based, Trichostatin A primed, luminescence, set 2, orthogonal assay for A1 inhibitor project, dose response (AID 504356); settings: MEWO A1-expressing, TSA primed, caspase-Glo luminescence, 3 h, stronger effect = higher value
# [2] = system: MEWO A1-expressing, TSA primed, caspase-Glo luminescence, 3 h; assay: as above
structure (smiles),measurement,setting,value
Cc1ccc(Nc2c([N+](=O)[O-])c(=O)n(C)c3ccccc23)cc1,max caspase activation,[1]; at 0.5 µM,1.48% (inactive)
Cc1ccc(Sc2c([N+](=O)[O-])cnc3ccccc23)cc1,AC10,[2],24.9 µM
O=c1oc2ccccc2c(N2CCCCC2)c1[N+](=O)[O-],max caspase activation,[1]; at 0.235 µM,-1.97% (inactive)
C/C1=C/C(=O)O[C@@H]2C[C@@H](CC[C@H](C)/C=C\CC1)O[C@@](O)(C1CSC(=O)N1)C2 (stereo partly specified),max caspase activation,[1]; at 30 µM,2.64% (inactive)
Cc1ccc(Sc2c([N+](=O)[O-])c(=O)n(C)c3ccccc23)cc1,AC10,[2],> 30 µM (inactive)
O=c1oc2ccccc2c(Sc2ccccc2)c1[N+](=O)[O-],max caspase activation,[1]; at 30 µM,-5.41% (inactive)
Cc1ccc(Sc2c([N+](=O)[O-])c(=O)oc3ccccc23)cc1,max caspase activation,[1]; at 16 µM,-4.17% (inactive)
CCOC(=O)N1CCN(c2c([N+](=O)[O-])c(=O)n(C)c3ccccc23)CC1,max caspase activation,[1]; at 8 µM,0.764% (inactive)
O=[N+]([O-])c1cnc2ccccc2c1Sc1ccccc1,AC10,[2],> 30 µM (inactive)
O=c1oc2ccccc2c(Nc2cc(Cl)cc(Cl)c2)c1[N+](=O)[O-],max caspase activation,[1]; at 0.12 µM,2.71% (inactive)
Cn1c(=O)c([N+](=O)[O-])c(Oc2ccccc2)c2ccccc21,max caspase activation,[1]; at 30 µM,2.08% (inactive)
Cc1ccc(Nc2c([N+](=O)[O-])c(=O)oc3ccccc23)cc1,max caspase activation,[1]; at 16 µM,1.85% (inactive)
CN1C(=O)C(C)(C)N(Cc2ccccc2)c2ccccc21,max caspase activation,[1]; at 16 µM,-0.643% (inactive)
Cc1ccc(Sc2cc(=O)n(C)c3ccccc23)cc1,max caspase activation,[1]; at 30 µM,-5.85% (inactive)
Cn1c(=O)c([N+](=O)[O-])c(Nc2ccc(Cl)cc2)c2ccccc21,max caspase activation,[1]; at 0.235 µM,3.04% (inactive)
CCSc1c([N+](=O)[O-])c(=O)oc2ccccc12,max caspase activation,[1]; at 8 µM,2.46% (inactive)
Cn1c(=O)c([N+](=O)[O-])c(Cl)c2ccccc21,max caspase activation,[1]; at 8 µM,9.18% (inactive)
Cn1c(=O)c([N+](=O)[O-])c(-n2cnc3ccccc32)c2ccccc21,AC10,[2],> 30 µM (inactive)
O=C(Oc1cccc(/C=N/Nc2nc(Nc3ccccc3)nc(N3CCOCC3)n2)c1)c1ccco1,max caspase activation,[1]; at 3.8 µM,2.46% (inactive)
O=c1oc2ccccc2c(Cl)c1[N+](=O)[O-],max caspase activation,[1]; at 30 µM,-5.13% (inactive)
CCOCCCNc1c([N+](=O)[O-])c(=O)n(C)c2ccccc12,max caspase activation,[1]; at 8 µM,1.97% (inactive)
